Measured values from paper PMC6781469 (Journal of Enzyme Inhibition and Medicinal Chemistry, 2019).
Where two headings read alike, the source gives them in different places. Each block holds one compound with its values, some of them ahead of it.

Assays:
FLT3(h) = biological target: T1, FLT3(h) (Homo sapiens, UniProt P36888); assay: Reaction Biology Kinase HotSpot radiometric kinase assay, FLT3; details: for times more potent than 5f against FLT3: ratio of FLT3 IC50 versus 5f
T1 sequence (P36888 27-993): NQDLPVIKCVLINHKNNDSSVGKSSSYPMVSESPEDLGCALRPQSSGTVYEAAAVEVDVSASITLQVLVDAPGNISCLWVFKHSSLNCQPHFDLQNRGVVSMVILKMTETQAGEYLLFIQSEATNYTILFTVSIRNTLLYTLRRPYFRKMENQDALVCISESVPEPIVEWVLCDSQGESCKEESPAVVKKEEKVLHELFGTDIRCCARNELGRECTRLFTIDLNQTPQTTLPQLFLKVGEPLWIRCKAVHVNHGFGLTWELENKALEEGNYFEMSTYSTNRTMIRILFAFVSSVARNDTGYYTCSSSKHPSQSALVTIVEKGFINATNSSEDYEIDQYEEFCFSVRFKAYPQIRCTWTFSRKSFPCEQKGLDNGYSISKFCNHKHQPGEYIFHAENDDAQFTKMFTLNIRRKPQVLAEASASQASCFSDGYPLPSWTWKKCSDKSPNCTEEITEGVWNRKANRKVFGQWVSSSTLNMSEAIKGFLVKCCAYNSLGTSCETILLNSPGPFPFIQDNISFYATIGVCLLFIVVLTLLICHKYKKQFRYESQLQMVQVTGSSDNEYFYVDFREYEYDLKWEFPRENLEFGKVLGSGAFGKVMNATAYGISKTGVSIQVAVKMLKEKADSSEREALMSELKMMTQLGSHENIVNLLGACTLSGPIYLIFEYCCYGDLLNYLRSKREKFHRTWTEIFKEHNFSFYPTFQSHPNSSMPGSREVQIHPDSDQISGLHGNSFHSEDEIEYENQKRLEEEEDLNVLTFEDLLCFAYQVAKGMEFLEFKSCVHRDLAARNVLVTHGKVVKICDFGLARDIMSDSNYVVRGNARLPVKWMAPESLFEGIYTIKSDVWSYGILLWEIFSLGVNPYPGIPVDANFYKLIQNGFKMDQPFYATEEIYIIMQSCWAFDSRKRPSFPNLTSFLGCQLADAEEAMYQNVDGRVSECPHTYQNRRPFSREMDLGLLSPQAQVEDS

FLT3 (ITD) = biological target: T2, FLT3 (ITD) (Homo sapiens, UniProt P36888, ITD); assay: kinase panel screen, FLT3 (ITD); details: read-out: % Inhibition FLT3 (ITD)
T2 sequence (P36888 564-993): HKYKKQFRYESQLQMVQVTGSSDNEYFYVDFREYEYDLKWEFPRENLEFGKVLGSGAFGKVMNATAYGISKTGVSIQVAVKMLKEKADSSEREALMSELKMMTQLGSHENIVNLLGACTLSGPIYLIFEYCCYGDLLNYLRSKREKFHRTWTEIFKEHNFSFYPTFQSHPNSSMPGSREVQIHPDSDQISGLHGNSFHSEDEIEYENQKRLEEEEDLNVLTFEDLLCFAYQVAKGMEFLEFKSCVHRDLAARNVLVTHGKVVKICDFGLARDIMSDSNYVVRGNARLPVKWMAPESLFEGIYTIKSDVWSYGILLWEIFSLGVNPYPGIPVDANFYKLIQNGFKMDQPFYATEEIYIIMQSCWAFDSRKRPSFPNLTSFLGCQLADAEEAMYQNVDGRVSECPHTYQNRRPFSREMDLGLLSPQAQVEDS

FMS = FMS (Homo sapiens, UniProt P07333); assay: Reaction Biology Kinase HotSpot kinase assay, FMS
RAF1 = RAF1 (Homo sapiens, UniProt P04049); assay: kinase panel screen, RAF1; details: read-out: % Inhibition RAF1
KIT = tested on: KIT; set-up: method as in earlier work; details: competitive-binding assays in vitro; read-out: IC50 against KIT; cited from earlier work
FLT-3 = tested on: FLT-3; set-up: method as in earlier work; details: competitive-binding assays in vitro; read-out: IC50 against FLT-3; cited from earlier work

FMS, sequence (P07333 20-972): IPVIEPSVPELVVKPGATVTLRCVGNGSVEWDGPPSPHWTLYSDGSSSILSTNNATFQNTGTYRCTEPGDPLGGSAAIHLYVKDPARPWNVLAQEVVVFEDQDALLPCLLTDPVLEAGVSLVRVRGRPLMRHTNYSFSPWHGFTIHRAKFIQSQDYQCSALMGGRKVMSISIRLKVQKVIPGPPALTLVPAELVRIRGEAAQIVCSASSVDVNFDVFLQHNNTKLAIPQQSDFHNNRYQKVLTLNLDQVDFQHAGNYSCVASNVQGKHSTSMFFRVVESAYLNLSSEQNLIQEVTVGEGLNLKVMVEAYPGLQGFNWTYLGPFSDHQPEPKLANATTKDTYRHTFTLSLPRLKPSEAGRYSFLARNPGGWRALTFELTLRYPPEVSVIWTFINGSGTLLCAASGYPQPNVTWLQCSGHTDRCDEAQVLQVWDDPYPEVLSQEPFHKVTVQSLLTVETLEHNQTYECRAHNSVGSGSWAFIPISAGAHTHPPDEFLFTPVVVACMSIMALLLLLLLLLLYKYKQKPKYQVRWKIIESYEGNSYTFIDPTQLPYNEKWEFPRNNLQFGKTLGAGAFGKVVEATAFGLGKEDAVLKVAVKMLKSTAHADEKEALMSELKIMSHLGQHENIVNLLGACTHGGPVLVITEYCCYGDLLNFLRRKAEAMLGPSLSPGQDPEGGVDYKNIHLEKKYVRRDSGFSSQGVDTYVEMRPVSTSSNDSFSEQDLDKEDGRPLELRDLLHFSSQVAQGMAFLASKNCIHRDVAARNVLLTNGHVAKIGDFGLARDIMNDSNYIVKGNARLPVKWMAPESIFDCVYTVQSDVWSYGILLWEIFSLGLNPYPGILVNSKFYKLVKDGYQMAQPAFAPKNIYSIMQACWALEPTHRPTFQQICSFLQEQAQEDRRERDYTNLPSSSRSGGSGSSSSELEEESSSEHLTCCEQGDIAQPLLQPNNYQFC
RAF1, sequence (P04049 whole entry): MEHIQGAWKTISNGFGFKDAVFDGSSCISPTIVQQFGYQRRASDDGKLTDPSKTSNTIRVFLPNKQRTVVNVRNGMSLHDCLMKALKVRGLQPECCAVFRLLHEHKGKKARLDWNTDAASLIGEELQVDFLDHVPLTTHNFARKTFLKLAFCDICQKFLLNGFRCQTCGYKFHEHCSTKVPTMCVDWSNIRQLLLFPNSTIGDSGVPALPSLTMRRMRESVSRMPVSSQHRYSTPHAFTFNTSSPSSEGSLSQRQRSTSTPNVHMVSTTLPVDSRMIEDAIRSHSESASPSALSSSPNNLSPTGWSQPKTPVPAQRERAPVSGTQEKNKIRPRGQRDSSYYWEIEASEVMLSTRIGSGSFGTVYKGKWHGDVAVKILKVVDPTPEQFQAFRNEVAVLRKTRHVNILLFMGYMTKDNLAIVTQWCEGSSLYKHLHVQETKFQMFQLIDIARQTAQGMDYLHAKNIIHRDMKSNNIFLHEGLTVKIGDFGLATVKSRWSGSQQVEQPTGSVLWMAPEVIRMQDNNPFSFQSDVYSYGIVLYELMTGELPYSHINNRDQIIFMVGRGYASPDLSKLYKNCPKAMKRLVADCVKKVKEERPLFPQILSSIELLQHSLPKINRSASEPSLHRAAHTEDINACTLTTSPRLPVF

IC50 (FLT3(h)): 2.25 µM
SMILES: Cc1oncc1C(=O)Nc1cccc2[nH]c(-c3cc(N4CCN(C)CC4)cc(C(F)(F)F)c3)nc12 [6a]

IC50 (FLT3(h)): 13.9 µM
SMILES: Cc1oncc1C(=O)Nc1cccc2[nH]c(-c3ccc(N4CCOCC4)c(C(F)(F)F)c3)nc12 [6b]

IC50 (FLT3(h)): 6.2 µM
SMILES: Cc1cn(-c2cc(-c3nc4c(NC(=O)c5cnoc5C)cccc4[nH]3)cc(C(F)(F)F)c2)cn1 [6c]

Continued, compound first:

SMILES: Cc1oncc1C(=O)Nc1ccc2nc(-c3cc(N4CCN(C)CC4)cc(C(F)(F)F)c3)[nH]c2c1 [5a, 5-methyl-N-(2-(3-(4-methylpiperazin-1-yl)-5-(trifluoromethyl)phenyl)-1H-benzo[d]imidazole-5-yl) isoxazole-4-carboxamide]
IC50 (FLT3(h)): 0.495 µM | inhibition at 10 µM (FLT3(h); read-out: % Inhibition FLT3): 90% | inhibition at 10 µM (FLT3 (ITD)): 88.5% | inhibition at 10 µM (FMS; read-out: % Inhibition FMS): 0% | inhibition at 10 µM (RAF1): 8.47%

SMILES: Cc1oncc1C(=O)Nc1ccc2[nH]c(-c3cc(N4CCOCC4)cc(C(F)(F)F)c3)nc2c1 [5b]
IC50 (FLT3(h); read-out: IC50 (µM) FLT3, enzymatic activity, Table 1, NA not defined): 7.94 µM

SMILES: Cc1oncc1C(=O)Nc1ccc2[nH]c(-c3ccc(N4CCOCC4)c(C(F)(F)F)c3)nc2c1 [5c]
IC50 (FLT3(h)): ~10 µM

SMILES: Cc1cn(-c2cc(-c3nc4cc(NC(=O)c5cnoc5C)ccc4[nH]3)cc(C(F)(F)F)c2)cn1 [5d]
IC50 (FLT3(h)): 2.33 µM | times more potent than 5f against FLT3 (FLT3(h)): 6–8 times

SMILES: Cc1oncc1C(=O)Nc1ccc2[nH]c(-c3cc(-n4cncc4C)cc(C(F)(F)F)c3)nc2c1 [5e]
IC50 (FLT3(h)): 1.62 µM | times more potent than 5f against FLT3 (FLT3(h)): 6–8 times | IC50 (FMS): 9.98 µM

SMILES: Cc1oncc1C(=O)Nc1ccc2[nH]c(-c3cc(-n4ccnc4C)cc(C(F)(F)F)c3)nc2c1 [5f]
IC50 (FLT3(h)): 13.4 µM

SMILES: CC(C)(C)c1cc(NC(=O)Nc2ccc(-c3ccc(N)nc3)cc2)no1 [compound 1]
IC50 (KIT): 0.001 µM | IC50 (FLT-3): 0.001 µM
